This assay deals with T1, MTP (Rattus norvegicus, UniProt D4A1W8).
T1 construct: endogenous in cells; host or cells: rat primary hepatocytes (male Sprague-Dawley), cell lysate
T1 sequence (D4A1W8 22-896): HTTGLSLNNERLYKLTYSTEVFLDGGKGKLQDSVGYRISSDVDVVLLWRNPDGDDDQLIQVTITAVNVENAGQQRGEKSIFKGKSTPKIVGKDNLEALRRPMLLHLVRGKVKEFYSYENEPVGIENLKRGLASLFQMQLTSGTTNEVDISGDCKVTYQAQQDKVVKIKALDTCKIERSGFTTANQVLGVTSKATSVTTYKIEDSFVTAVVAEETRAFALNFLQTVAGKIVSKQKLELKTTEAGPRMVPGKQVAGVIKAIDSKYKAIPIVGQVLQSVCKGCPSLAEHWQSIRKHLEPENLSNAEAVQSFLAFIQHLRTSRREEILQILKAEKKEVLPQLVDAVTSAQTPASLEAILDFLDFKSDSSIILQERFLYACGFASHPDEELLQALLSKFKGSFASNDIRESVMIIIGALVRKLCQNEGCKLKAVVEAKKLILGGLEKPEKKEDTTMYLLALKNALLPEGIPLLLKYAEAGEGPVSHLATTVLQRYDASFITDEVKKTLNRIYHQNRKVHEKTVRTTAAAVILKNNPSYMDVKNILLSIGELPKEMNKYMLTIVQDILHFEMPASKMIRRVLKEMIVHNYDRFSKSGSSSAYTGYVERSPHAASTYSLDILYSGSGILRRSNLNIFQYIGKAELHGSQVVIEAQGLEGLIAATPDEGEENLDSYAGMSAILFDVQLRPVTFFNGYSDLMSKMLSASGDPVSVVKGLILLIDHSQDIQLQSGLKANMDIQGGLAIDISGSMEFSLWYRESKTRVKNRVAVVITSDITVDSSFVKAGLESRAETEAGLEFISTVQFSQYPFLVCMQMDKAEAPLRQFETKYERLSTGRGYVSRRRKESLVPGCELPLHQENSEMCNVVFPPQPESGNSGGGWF
T1 sequence (P04785 20-509 partner): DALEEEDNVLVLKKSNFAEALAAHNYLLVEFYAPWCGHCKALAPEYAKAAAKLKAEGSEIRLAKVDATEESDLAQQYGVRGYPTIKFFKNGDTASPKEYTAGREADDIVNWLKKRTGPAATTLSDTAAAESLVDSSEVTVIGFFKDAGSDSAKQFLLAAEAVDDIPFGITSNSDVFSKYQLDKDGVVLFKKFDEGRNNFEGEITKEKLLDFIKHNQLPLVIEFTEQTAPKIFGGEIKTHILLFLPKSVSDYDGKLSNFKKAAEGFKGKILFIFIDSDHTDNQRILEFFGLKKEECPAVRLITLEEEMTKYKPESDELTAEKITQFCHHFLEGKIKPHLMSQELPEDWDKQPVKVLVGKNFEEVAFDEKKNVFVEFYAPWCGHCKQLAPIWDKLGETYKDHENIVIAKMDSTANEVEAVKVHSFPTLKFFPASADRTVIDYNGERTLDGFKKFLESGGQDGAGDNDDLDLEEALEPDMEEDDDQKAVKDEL
Kind of assay: MTP activity in lysates of fatty acid-pretreated rat primary hepatocytes. The settings on record: hepatocytes pre-treated 6 hr with BSA, OA or EPA. The class given is biochemical. The procedure: Three methods were used to assess possible effects of Ω-3 fatty acids on cellular MTP function. First, rat primary hepatocytes were incubated with BSA, OA, or EPA, and then MTP activity in cell lysates was measured using a fluorescent assay (Roar Biomedical, New York, NY). Second, to determine if lipid classes synthesized in the presence of OA or Ω-3 fatty acid are equivalent substrates for MTP, primary rat hepatocytes or HepG2 cells were incubated with tritiated OA or EPA, total cellular lipids were extracted into isopropanol, and biosynthetically labeled cholesteryl ester, triglyceride, and phospholipids were separated by preparative thin layer chromatography. […] Transfer of the labeled lipids to acceptor vesicles in the presence of 50 μg of purified bovine MTP was measured as described in Jamil, H. et al (1995) J Biol Chem 270(12), 6549-54.
First, it was necessary to test the possibility that Ω-3 fatty acids stimulate apob degradation by impeding MTP-dependent early lipidation, thereby targeting apoB to proteasomes. Rat primary hepatocytes were pre-treated for 6 hr with BSA, OA, or EPA, and then the MTP activity in lysates of these cells was assessed using artificial donor and acceptor vesicles, with [^14C]triolein as the MTP substrate, as described in Jamil, H. et al. (1995) J Biol Chem 270(12), 6549-54.

On to `CCCCCCCC/C=C\CCCCCCCC(=O)O` [OA, oleic acid], for which the “MTP-mediated transfer of labeled triolein in cell lysates” value is given as “No difference”.

For the origin of these results see patent publication US20030170643A1, “Regulation of apoB treatment and drug screening for cardiovascular and metabolic disorders or syndromes” (priority 1999, published 2003).
